In series [1] the target is T1, MMP-9 (Rattus norvegicus, UniProt P50282).
T1 construct: stimulate neuronal cell activity leading to release of MMP-9; endogenous in cells; host or cells: primary rat hippocampal neurons, 7 DIV
Briefly: Inhibition of MMP-9-dependent nectin-3 cleavage in glutamate-stimulated hippocampal neuron cultures (immunoblotting). Format: cell-based. Here is the method:
In the first non-limiting example, the compound was tested for specific inhibition of MMP-9 activity in vitro. Hippocampal neurons were prepared from newborn Wistar rats at postnatal day P0 as described previously (Habas et al., 2006). The culture medium consisted of Neurobasal Medium supplemented with B27 (Invitrogen) and 1 mM 1-glutamine, 100 U ml^−1 penicillin and 0.1 mg ml^−1 streptomycin. The cells used for these experiments were 7 DIV. […] The control cultures consisted of neurons stimulated with glutamate and of glutamate in the presence of inhibitor I (an inhibitor with proven inhibitory effect on MMP-9 activity). […] The MMP-9 activity level was evaluated by the cleavage of MMP-9 substrate-nectin-3.
Nectin-3 is a transmembrane protein predominantly expressed at post-synaptic part of the synapse (van der Kooij et al., 2014). […] We evaluated the basic amount of nectin-3 (by immunoblotting) and the presence of a cut fragment of nectin-3 (approximately 17 kDa).
For immunoblotting, cultures were homogenized in a lysis buffer containing 1 mM MgCl2, 5 mM HEPES (pH=7.4), 320 mM sucrose, 1 mM Na2F, and cOmplete™ Protease Inhibitor Cocktail (Roche) using Dounce glass homogenizer. Protein concentration was measured using BCA Protein Assay Kit (Pierce). […] For the quantification of individual bands, the scan of the photographic film was analyzed by densitometry using GeneTools software (Syngene).

Series [2] deals with T2, MMP-9 (Mus musculus, UniProt P41245).
T2 construct: strongly associated with the release of MMP-9 from dendritic spines; from tissue; host or cells: mouse hippocampus (in vivo, after kainic acid)
The series can be described thus: MMP-9-dependent nectin-3 cleavage in hippocampus after kainic acid injection (immunoblotting). The class given is in vivo, mice. The following applies: 9 mg/kg i.p. 1 hour prior to KA; hippocampus 6 hours after KA. As for the experimental part: In a further nonlimiting example, marimastat was tested in vivo, in a mouse model of epileptogenesis (intra-hippocampal kainic acid injection). […] This is the optimal time allowing for its potential therapeutic effects. […] As a result of the KA injection, strong epileptic seizures were observed due to increased neuronal activity.
The process of developing epileptic seizures evoked by KA (epileptogenesis) is strongly associated with the release of MMP-9 from dendritic spines. […] For this purpose, after 6 hours following KA-injection the hippocampus was isolated and the immunoblotting assay was performed for the presence of cleaved form of nectin-3 protein.

For series [3], the system named is mouse model of epileptogenesis (intra-hippocampal kainic acid injection). Briefly: Functional analysis in mouse model of epileptogenesis (intra-hippocampal kainic acid injection), video-EEG. Format: in vivo, mice. The conditions noted are these: for duration of the single seizure: P=0.02. Here is the method: The functional analysis of therapeutic use of marimastat in mouse model of epileptogenesis (intra-hippocampal kainic acid injection) was performed. Epileptogenesis was induced by the administration of kainic acid directly into the CA1 region of the hippocampus, during stereotactic surgeries. Coordinates for CA1 were chosen according to Paxinos Mouse Brain Atlas. […] The mice were injected intraperitoneally (9 mg/kg b.w.), 3 times after administration of kainic acid at: • 1. 30 minutes • 2. 6 hours • 3. […] Each group consisted of 6 animals; the experiment was performed in two repetitions. Simultaneously, just after KA injections, mice were implanted with cranial and hippocampal electrodes for EEG registration (FIG. 3). […] Injected kainic acid stimulated the degeneration within CA1 and CA3 region, but also led to the changes within dentate gyms area. One of the most important changes observed in the epileptogenesis process was mossy fiber sprouting located in dentate gyms DG. Mossy fiber sprouting is defined as an aberrant sprouting of granule cells axons (mossy fibers) into the inner molecular layer of the dentate gyrus. This process is observed in patients with temporal lobe epilepsy (Buckmaster, 2012). Therefore, hippocampal electrode location was implanted into DG, below the injection site, according to coordinates: The electrode implantation process proceeded according to the following protocol. Stainless steel screw electrodes (Ø1.6 mm, Bilaney Consultants GmbH, Germany) were placed in the skull (Table 3; FIG. 3). A bipolar hippocampal electrode was positioned in the dentate gyms. The 2-week continuous (24 h/7 days) video-EEG (vEEG) monitoring was started immediately after KA injection. Mice were placed in PMMA cages (one mouse per cage) and connected to the recording system with commutators (SL6C, Plastics One Inc., USA). vEEG was performed using the Twin EEG recording system connected to a Comet EEG PLUS with 57-channel amplifier AS40-PLUS (Natus Medical Incorporated, USA) and filtered (high-pass filter cut-off 0.3 Hz, low-pass filter cut off 100 Hz). The behavior of the animals was recorded using a digital camera I-PRO WV-SC385 (Panasonic, Japan). As outcome measures, the present Inventors assessed the occurrence, frequency and duration of spontaneous seizures. An electroencephalographic seizure was defined as a high amplitude (>2× baseline) rhythmic discharge that clearly represented an abnormal EEG pattern that lasted >5 s. The frequency of seizures in each mouse was calculated as the number of seizures per completed EEG recording day or per week. Modified Racine's scale was used in the study (Racine, 1972): The experiment was divided into three parts: • 1) first 24 hours post-KA injection (acute response to injected convulsant) • 2) first week post-KA injection (acute response to injected convulsant) • 3) 4 weeks after KA injection (epileptogenesis upon injected convulsant—chronic changes) In each stage, several parameters were calculated: seizure duration (in seconds), seizure score (according the Racine scale), seizure number (per animal/per day). Additionally, in the first 24 hours, the time between the kainic acid injection and first epileptic seizure was also estimated.

Series [4] relates to MMP-1, MMP-2, MMP-3, MMP-7 and MMP-9. The conditions noted are these: cited from earlier work.
For series [5] the following is noted: humans, oral; cited from earlier work.
The conditions of series [6]: single dose up to 800 mg or repeated dose up to 200 mg twice a day for a week; cited from earlier work.
Series [7] concerns murine cancer models: melanoma, hemangioma, ovarian carcinoma, colorectal, breast and pancreatic cancer. The following applies: cited from earlier work.
The mark [8] stands for this setting: 4 weeks after KA injection, not significant.

T1 sequence (P50282 108-708): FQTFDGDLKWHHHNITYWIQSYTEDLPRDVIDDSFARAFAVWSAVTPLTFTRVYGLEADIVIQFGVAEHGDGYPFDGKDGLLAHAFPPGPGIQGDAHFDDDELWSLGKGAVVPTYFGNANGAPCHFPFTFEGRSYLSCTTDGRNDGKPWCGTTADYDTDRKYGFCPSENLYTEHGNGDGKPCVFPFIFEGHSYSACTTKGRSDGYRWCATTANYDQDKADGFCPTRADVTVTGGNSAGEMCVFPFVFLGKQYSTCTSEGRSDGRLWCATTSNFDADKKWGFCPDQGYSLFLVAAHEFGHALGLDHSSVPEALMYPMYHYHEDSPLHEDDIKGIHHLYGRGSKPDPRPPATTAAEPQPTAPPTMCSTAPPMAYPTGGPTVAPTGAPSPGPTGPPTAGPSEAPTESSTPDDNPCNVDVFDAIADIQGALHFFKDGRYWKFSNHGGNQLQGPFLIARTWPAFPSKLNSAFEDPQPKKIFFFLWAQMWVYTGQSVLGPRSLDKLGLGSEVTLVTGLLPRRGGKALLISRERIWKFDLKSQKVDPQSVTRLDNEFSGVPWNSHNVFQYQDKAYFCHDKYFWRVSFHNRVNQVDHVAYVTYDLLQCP
T2 sequence (P41245 108-730): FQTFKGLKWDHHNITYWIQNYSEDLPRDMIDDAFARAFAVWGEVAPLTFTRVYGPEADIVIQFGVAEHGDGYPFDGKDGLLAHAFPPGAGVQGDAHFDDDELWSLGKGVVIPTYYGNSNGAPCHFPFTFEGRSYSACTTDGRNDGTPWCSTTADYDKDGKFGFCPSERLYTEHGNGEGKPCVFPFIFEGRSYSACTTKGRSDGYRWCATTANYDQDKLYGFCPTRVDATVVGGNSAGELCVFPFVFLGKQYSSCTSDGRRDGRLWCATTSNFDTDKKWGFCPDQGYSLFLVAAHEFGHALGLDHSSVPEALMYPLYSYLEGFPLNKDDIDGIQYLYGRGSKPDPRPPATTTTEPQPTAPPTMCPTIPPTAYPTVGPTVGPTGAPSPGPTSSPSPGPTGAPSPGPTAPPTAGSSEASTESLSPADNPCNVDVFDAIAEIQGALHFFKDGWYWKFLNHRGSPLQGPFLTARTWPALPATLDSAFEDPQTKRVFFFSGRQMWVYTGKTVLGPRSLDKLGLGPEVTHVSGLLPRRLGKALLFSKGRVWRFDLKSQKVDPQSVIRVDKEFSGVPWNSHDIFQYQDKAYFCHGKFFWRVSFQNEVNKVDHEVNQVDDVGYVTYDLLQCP

Regarding `CNC(=O)[C@@H](NC(=O)[C@H](CC(C)C)[C@H](O)C(=O)NO)C(C)(C)C` [marimastat, Marimastat], the “MMP-9-dependent cleavage of nectin-3 in vitro” value on MMP-9 [1] (hippocampal dissociated cell cultures, 7 DIV, glutamate 5 μM, 17 kDa nectin-3 fragment) is “inhibits”. Also, the “minimum effective dose inhibiting nectin-3 cleavage” value on MMP-9 [1] (tested at 5 nM, 0.5 μM, 5 μM, 40 μM and 100 μM, 30 min before glutamate) worked out at 0.5 µM. At MMP-9 [2], the “MMP-9-dependent nectin-3 enzymatic cleavage in vivo (optical density of the 17 kDa nectin-3 fragment)” value is listed as “specifically reduced”. Further, the “duration of the single seizure” value in series [3] (4 weeks after KA injection) is reported as “inhibited”. For the same compound, in series [3] (setting [8]), the seizure number entry is on record as “slightly decreased” and the seizure score result is given as “slightly decreased”. Further, in series [3] (first 24 hours post-KA), the “latency to the 1st seizure” value is reported as “no differences” and the seizure duration result is reported as “no differences”. Besides, the “seizure score (Racine scale)” value in series [3] (first 24 hours post-KA, 9 mg/kg i.p. at 30 min, 6 h, 24 h, P=0.0016) is “significantly decreased”. For the same compound, the seizure number entry in series [3] (first 24 hours post-KA, P=0.005) is “significantly decreased”. In addition, in series [3] (first week post-KA), the seizure number entry was “did not change”, the seizure score result is on record as “did not change” and the “duration of the single seizure” value is “significantly reduced”. In series [4], the “inhibitory activity against major MMPs” value is listed as “potent broad-spectrum inhibitory activity”. For the same compound, in series [5], the bioavailability result is “high and predictable”; the half-life result was “approximately 15 hours”. In addition, the “side effects in healthy subjects” value in series [6] is listed as “did not show any side effects”. Also, the tumor progression result in series [7] is “inhibited tumor progression”.

(Values after patent US12502365B2 (Instytut Biologii Doswiadczalnej Im. Marcelego Nenckiego …, priority 2019, dated 2025).)
